Data set [1] is described as follows: Inhibition of Myc/Max heterodimerization at 20 uM by FRET assay.
The target in data set [2] is Transcription factor Jun (Gallus gallus) (UniProt P18870). Put plainly: Inhibition of Jun-mediated oncogenic transformation in chicken embryo fibroblasts.
The species entered for the next data set is Gallus gallus. Description: Inhibition of Myc/Max heterodimerization in chicken embryo fibroblasts assessed as inhibition of oncogenically transformed cell foci formation at 20 uM.
The target of data set [3] is Proto-oncogene tyrosine-protein kinase Src (Gallus gallus) (UniProt P00523). Put plainly: Inhibition of Src-mediated oncogenic transformation in chicken embryo fibroblasts.
A short description of data set [4]: Cytotoxicity against chicken embryo fibroblasts. Also on record: species or system Gallus gallus.

Calls of active or inactive are those of the source. The calls are words filed in the database; no cut-off is given here.

Transcription factor Jun (Gallus gallus), sequence (P18870 whole entry): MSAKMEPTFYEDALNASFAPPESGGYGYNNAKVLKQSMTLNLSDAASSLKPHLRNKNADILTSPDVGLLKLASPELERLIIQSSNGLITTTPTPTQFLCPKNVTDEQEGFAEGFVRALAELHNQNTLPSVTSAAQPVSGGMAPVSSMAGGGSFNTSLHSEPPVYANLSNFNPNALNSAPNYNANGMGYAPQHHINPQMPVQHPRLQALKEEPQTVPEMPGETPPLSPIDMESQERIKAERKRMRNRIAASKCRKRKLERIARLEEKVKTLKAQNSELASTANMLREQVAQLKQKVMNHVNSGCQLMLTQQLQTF

The inhibition is the drop in the measured response relative to a control, in per cent. In data set [1], `CNC(=O)[C@@H]1CN(C(=O)CCC2CCN(C(=O)OC(C)(C)C)CC2)C[C@H]1C(=O)NC[C@H](NS(=O)(=O)CCc1cccc2ccccc12)C(=O)OC(C)(C)C` showed an inhibition of 43%. Also, the inhibition entry in data set [2] and in data set [3] was “inactive” throughout. Besides, in the data set listed under Gallus gallus, the inhibition entry was “Active”.

For the compound `CNC(=O)[C@@H]1CN(C(=O)CCCCCNC(=O)OC(C)(C)C)C[C@H]1C(=O)NC[C@H](NS(=O)(=O)c1cc(Cl)sc1Cl)C(=O)OC(C)(C)C` [MYCMYCIN 2], the Activity result in data set [4] is “Non-toxic”. In data set [1], this compound registered an inhibition of 18%. The inhibition entry in data set [2] is “inactive”. For the same compound, in the data set listed under Gallus gallus, the inhibition result was “Active”.

`CNC(=O)[C@@H]1CN(C(=O)CCC2CCN(C(=O)OC(C)(C)C)CC2)C[C@H]1C(=O)NCCC(=O)OC(C)(C)C` displayed an inhibition in data set [1] of 30%. Further, the inhibition result in data set [2] and in data set [3] was “inactive” throughout. In the data set filed under Gallus gallus, the inhibition result was “Active”.

Compound `CN(C)c1cccc2c(S(=O)(=O)N[C@@H](CNC(=O)[C@@H]3CN(C(=O)CCC4CCN(C(=O)OC(C)(C)C)CC4)C[C@H]3C(=O)O)C(=O)OC(C)(C)C)cccc12` showed an inhibition in data set [1] of 75%. For the same compound, the inhibition result in data set [2] and in data set [3] was “inactive” each time. In the data set listed under Gallus gallus, the inhibition entry was “Active”.

Compound `CCCCS(=O)(=O)N[C@@H](CNC(=O)[C@@H]1CN(C(=O)CCCCCNC(=O)OC(C)(C)C)C[C@H]1C(=O)O)C(=O)OC(C)(C)C` showed an inhibition in data set [1] of 72%. Also, the inhibition entry in data set [2] and in data set [3] was “inactive” each time. In addition, the inhibition result in the data set filed under Gallus gallus was “Active”.

`CNC(=O)[C@@H]1CN(C(=O)CCCNC(=O)OC(C)(C)C)C[C@H]1C(=O)NC[C@H](NS(=O)(=O)c1cc(Cl)sc1Cl)C(=O)OC(C)(C)C` returned an inhibition in data set [1] of 8%. The inhibition entry in data set [2] and in data set [3] was “inactive” each time. Further, the inhibition entry in the data set filed under Gallus gallus is “Active”.

As to `CNC(=O)[C@@H]1CN(C(=O)CCCCCNC(=O)OC(C)(C)C)C[C@H]1C(=O)NC[C@H](NS(=O)(=O)CCc1cccc2ccccc12)C(=O)OC(C)(C)C`, the inhibition in data set [1] was 24%. The inhibition result in data set [2] and in data set [3] was “inactive” throughout. The inhibition entry in the data set filed under Gallus gallus was “Active”.

For the compound `Cc1cc(C)c(S(=O)(=O)N[C@@H](CNC(=O)[C@@H]2CN(C(=O)CC3CCN(C(=O)OC(C)(C)C)CC3)C[C@H]2C(=O)O)C(=O)OC(C)(C)C)c(C)c1` [MYCMYCIN 1], the Activity result in data set [4] is “Non-toxic”. Also, the inhibition in data set [1] came out at 66%. In addition, in the data set listed under Gallus gallus, the inhibition result is “Active”. The inhibition result in data set [3] was “inactive”.
